In ChEMBL document CHEMBL1201862, “PubChem BioAssay data set” (2004):
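A five-concentration, 48-hour dose response in 96-well plates underlies each endpoint, interpolated linearly between surrounding concentrations. The concentration for 50% growth inhibition is given as GI50.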 Calls of active or inactive are those of the source. No stated cut-off is given here; in the data, active = GI50 up to about 1.1 µM and inactive = higher.

Key:
Test in all cases: NCI tumour cell line growth inhibition, 48 h
OVCAR-5 = system: OVCAR-5
SW-620 = system: SW-620
UACC-257 = system: UACC-257
SNB-75 = system: SNB-75
SK-MEL-28 = system: SK-MEL-28
A498 = system: A498
SK-OV-3 = system: SK-OV-3
RPMI-8226 = system: RPMI-8226
Malme-3M = system: Malme-3M
M14 = system: M14
UACC-62 = system: UACC-62
HL-60 = system: HL-60
HCT-116 = system: HCT-116
CAKI-1 = system: CAKI-1
SK-MEL-5 = system: SK-MEL-5
HT-29 = system: HT-29
SN12C = system: SN12C

Measured: GI50

COC(=O)N1C=Cc2c(c(C)c3c([nH]c4ccccc43)c2C)C1C (stereo unspecified)
inactive: OVCAR-5 17.2 µM | SW-620 17.7 µM | UACC-257 17.3 µM | SNB-75 15.3 µM | SK-MEL-28 15.5 µM | A498 14.1 µM | SK-OV-3 27.4 µM | RPMI-8226 7.62 µM | Malme-3M 18.1 µM | M14 29.6 µM | UACC-62 18 µM | HL-60 19.2 µM | HCT-116 12.9 µM | CAKI-1 18.1 µM | SK-MEL-5 15.3 µM | HT-29 11.3 µM

CN(C)CCNC(=O)c1cccc2c1nc(-c1cccnc1)c1ccccc12
inactive: SN12C 3.3 µM | OVCAR-5 8.83 µM | SW-620 2.17 µM | UACC-257 3.89 µM | SNB-75 9.35 µM | SK-MEL-28 11.1 µM | A498 1.61 µM | SK-OV-3 10 µM | M14 6.67 µM | UACC-62 3.57 µM | HL-60 1.97 µM | HCT-116 2.95 µM | CAKI-1 2.45 µM | SK-MEL-5 3.37 µM | HT-29 3.76 µM

CCCCCCCCCCCC(=O)C1=C(O)CCC(O)C1=O (stereo unspecified)
inactive: SN12C 21.8 µM | OVCAR-5 27.7 µM | SW-620 13.2 µM | UACC-257 14.7 µM | SNB-75 21.6 µM | SK-MEL-28 16.1 µM | A498 16.2 µM | SK-OV-3 26.8 µM | Malme-3M 17 µM | UACC-62 10.8 µM | HL-60 13.5 µM | HCT-116 21.3 µM | CAKI-1 23 µM | SK-MEL-5 10 µM | HT-29 15.6 µM

O=C(CC1(O)C(=O)Nc2c(Cl)cc(Cl)cc21)c1ccco1 (stereo unspecified)
inactive: SN12C 63.8 µM | OVCAR-5 > 100 µM | SW-620 50.4 µM | UACC-257 > 100 µM | SNB-75 29 µM | SK-MEL-28 > 100 µM | SK-OV-3 > 100 µM | RPMI-8226 23.1 µM | Malme-3M > 100 µM | M14 54 µM | HL-60 20.8 µM | CAKI-1 45 µM | SK-MEL-5 77.6 µM | HT-29 52.7 µM

c1ccc2c(c1)nc1n2CSC1
inactive: SN12C > 100 µM | SW-620 > 100 µM | SNB-75 > 100 µM | SK-MEL-28 > 100 µM | A498 > 100 µM | SK-OV-3 > 100 µM | RPMI-8226 > 100 µM | Malme-3M > 100 µM | M14 > 100 µM | UACC-62 > 100 µM | HL-60 > 100 µM | CAKI-1 > 100 µM | SK-MEL-5 > 100 µM | HT-29 > 100 µM

Cn1c2ccccc2c2ccc3c(c21)C(=O)C(c1ccccc1)=CC3=O
inactive: SN12C 17.3 µM | OVCAR-5 > 100 µM | UACC-257 32.7 µM | SNB-75 9.31 µM | SK-MEL-28 24 µM | SK-OV-3 81.3 µM | RPMI-8226 23.6 µM | Malme-3M 21.9 µM | M14 39.4 µM | HL-60 14.4 µM | HCT-116 14.5 µM | CAKI-1 49.9 µM | SK-MEL-5 22.8 µM | HT-29 45.4 µM

O=C(NNc1ccc([N+](=O)[O-])cc1)C1OC(CO)C(O)C1O (stereo unspecified)
inactive: SN12C > 100 µM | OVCAR-5 > 100 µM | SW-620 21.8 µM | UACC-257 > 100 µM | SNB-75 > 100 µM | SK-MEL-28 > 100 µM | A498 > 100 µM | SK-OV-3 > 100 µM | RPMI-8226 30.5 µM | Malme-3M > 100 µM | M14 > 100 µM | UACC-62 > 100 µM | HL-60 58.9 µM | HCT-116 > 100 µM | CAKI-1 > 100 µM | SK-MEL-5 > 100 µM | HT-29 59.8 µM

Cc1ccc(S(=O)(=O)N/N=C(/c2nc3ccc([N+](=O)[O-])cc3nc2O)C(O)c2ccc(C(O)/C(=N\NS(=O)(=O)c3ccc(C)cc3)c3nc4ccc([N+](=O)[O-])cc4nc3O)cc2)cc1 (stereo unspecified)
inactive: OVCAR-5 > 100 µM | SW-620 42.8 µM | UACC-257 14.8 µM | SNB-75 > 100 µM | SK-MEL-28 > 100 µM | A498 59 µM | SK-OV-3 > 100 µM | RPMI-8226 26.1 µM | Malme-3M > 100 µM | M14 20.8 µM | UACC-62 68.4 µM | HL-60 7.82 µM | HCT-116 54.2 µM | SK-MEL-5 28.1 µM | HT-29 31 µM

CN1c2ccccc2N(C(=O)c2ccc([N+](=O)[O-])cc2)C(CC(=O)O)c2cccn21 (stereo unspecified)
inactive: SN12C > 100 µM | OVCAR-5 > 100 µM | SW-620 > 100 µM | UACC-257 > 100 µM | SNB-75 > 100 µM | SK-MEL-28 > 100 µM | A498 > 100 µM | SK-OV-3 > 100 µM | RPMI-8226 > 100 µM | Malme-3M > 100 µM | M14 > 100 µM | UACC-62 > 100 µM | HL-60 > 100 µM | CAKI-1 > 100 µM | SK-MEL-5 > 100 µM | HT-29 > 100 µM
